Test results from US20100022483A1, “Substituted Tetracycline Compounds” (Paratek Pharmaceuticals, Inc., priority 2008, published 2010).
Values after ≈ are worked out from the molar mass of the structure shown. Read-outs that look alike come from different tables or passages of the source.

What was measured:
gram negative bacteria = assay: In vitro anti-bacterial activity assay (broth dilution MIC), gram negative bacteria; format: cell-based, E. coli
How it was run: (§1)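 Broth dilution MIC following CLSI M7-A2: compounds serially diluted, log-phase test strains added to final ~5×10^5 CFU/ml, incubated ~18 hours at 35° C in ambient air. Plates read on microplate reader or visually; MIC is lowest concentration inhibiting growth.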

gram positive bacteria = assay: In vitro anti-bacterial activity assay (broth dilution MIC), gram positive bacteria; format: cell-based, S. aureus; conditions: 18 h
How it was run: as §1

[1] = Mammalian cytotoxicity assay (resazurin), COS-1 cells; format: cell-based; conditions: African green monkey, read-out: Cytotox. COS-1
How it was run: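 Resazurin read-out (0.042 mg/ml, 2 h at 37° C. then 30 min dark, room temperature; fluorescence 535/590 nm) follows 24-hour compound exposure of overnight-seeded cells, serially diluted. IC50 is the concentration giving 50% growth inhibition.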

in vitro = format: cell-based; conditions: Chinese hamster, Cytotox. CHO-K1
3T3 fibroblast cells = assay: In vitro phototoxicity assay (neutral red; UV light-treated vs dark control plates); format: cell-based; conditions: for Photo Toxicity UV Tox50: UV light 50 minutes; for Photo Toxicity Dark Tox50: dark control plate
How it was run: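 Neutral red viability readout (A535 after EtOH/acetic acid extraction) compares paired plates: one exposed 50 min to UV at 1.6–1.8 mW/cm^2, one held in darkness, both dosed with compound in HBSS and recovered overnight. 3T3 fibroblast cells used; phototoxicity taken as the difference.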

[2] = Escherichia coli, 18 h, E. coli D1 209, read-out: Median MIC's G− E. coli D1 209
[3] = Escherichia coli, 18 h, E. coli MG 1655, read-out: Median MIC's G− E. coli MG 1655
[4] = Escherichia coli, ATCC25922, 18 h, E. coli ATCC 25922, read-out: Median MIC's G− E. coli ATCC 25922
[5] = Pseudomonas aeruginosa, 18 h, P. aeruginosa K201 PAO6609, read-out: Median MIC's G− P. aeruginosa K201 PAO6609
[6] = Staphylococcus aureus, S. aureus MRSA5, read-out: Median MIC's G+ S. aureus MRSA5
[7] = Staphylococcus aureus, S. aureus RN450, read-out: Median MIC's G+ S. aureus RN450
[8] = Streptococcus pneumoniae, S. pneumoniae 157E-Strep, read-out: Median MIC's G+ S. pneumoniae 157E-Strep

Row | SMILES | MIC (gram negative bacteria; [2]) | MIC (gram negative bacteria; [3]) | MIC (gram negative bacteria; [4]) | MIC (gram negative bacteria; [5]) | MIC (gram positive bacteria; [6]) | MIC (gram positive bacteria; [7]) | MIC (gram positive bacteria; [8]) | IC50 at 24 h [1] | IC50 at 24 h (in vitro) | Photo Toxicity UV Tox50 (3T3 fibroblast cells) | Photo Toxicity Dark Tox50 (3T3 fibroblast cells)
1 | CN(C)CC/C(=N\OC(C)(C)C)c1ccc(O)c2c1C[C@H]1C[C@H]3[C@H](N(C)C)C(O)=C(C(N)=O)C(=O)[C@@]3(O)C(O)=C1C2=O [CJ] | 1 µg/mL (≈ 1.71 µM) | 2 µg/mL (≈ 3.42 µM) | 0.5 µg/mL (≈ 0.855 µM) | 64 µg/mL (≈ 109 µM) | 2 µg/mL (≈ 3.42 µM) | 0.06 µg/mL (≈ 0.103 µM) | 0.06 µg/mL (≈ 0.103 µM) | 82.2 µM | 34.6 µM | 62.89 µM | >136.86 µM
2 | CN(C)[C@@H]1C(O)=C(C(N)=O)C(=O)[C@@]2(O)C(O)=C3C(=O)c4c(O)ccc(-c5ccc(CNCc6cccnc6)o5)c4C[C@H]3C[C@@H]12 [BI] | 2 µg/mL (≈ 3.33 µM) | 4 µg/mL (≈ 6.66 µM) | 1 µg/mL (≈ 1.66 µM) | 64 µg/mL (≈ 107 µM) | 8 µg/mL (≈ 13.3 µM) | 0.06 µg/mL (≈ 0.0999 µM) | 0.06 µg/mL (≈ 0.0999 µM) | > 39.3 µM | > 26 µM | >126.75 µM | >126.75 µM
3 | CC(C)N(C)CC(=O)c1ccc(O)c2c1C[C@H]1C[C@H]3[C@H](N(C)C)C(O)=C(C(N)=O)C(=O)[C@@]3(O)C(O)=C1C2=O [AJ] | 1 µg/mL (≈ 1.9 µM) | 0.25 µg/mL (≈ 0.474 µM) | 0.25 µg/mL (≈ 0.474 µM) | 32 µg/mL (≈ 60.7 µM) | 0.5 µg/mL (≈ 0.948 µM) | 0.06 µg/mL (≈ 0.114 µM) | 0.06 µg/mL (≈ 0.114 µM) | > 150 µM | > 150 µM | >149.87 µM | >149.87 µM
4 | CN(C)CCNC(=O)c1cccc(-c2ccc(O)c3c2C[C@H]2C[C@H]4[C@@H](N(C)C)C(O)=C(C(N)=O)C(=O)[C@@]4(O)C(O)=C2C3=O)c1 [A] | 64 µg/mL (≈ 106 µM) | 64 µg/mL (≈ 106 µM) | 64 µg/mL (≈ 106 µM) | 64 µg/mL (≈ 106 µM) | 64 µg/mL (≈ 106 µM) | 8 µg/mL (≈ 13.2 µM) | 4 µg/mL (≈ 6.62 µM) | > 200 µM | > 200 µM | M: >200 uM | M: >200 uM
5 | COc1ccc(CN(C)C)cc1-c1ccc(O)c2c1C[C@H]1C[C@H]3[C@H](N(C)C)C(O)=C(C(N)=O)C(=O)[C@@]3(O)C(O)=C1C2=O [AT] | 1 µg/mL (≈ 1.73 µM) | 1 µg/mL (≈ 1.73 µM) | 0.5 µg/mL (≈ 0.866 µM) | 64 µg/mL (≈ 111 µM) | 0.5 µg/mL (≈ 0.866 µM) | 0.06 µg/mL (≈ 0.104 µM) | 0.06 µg/mL (≈ 0.104 µM) | > 146 µM | > 146 µM | >146.03 µM | >146.03 µM
6 | CN(C)[C@@H]1C(O)=C(C(N)=O)C(=O)[C@@]2(O)C(O)=C3C(=O)c4c(O)ccc(C(=O)CNCc5ccccn5)c4C[C@H]3C[C@@H]12 [BY] | 64 µg/mL (≈ 114 µM) | 64 µg/mL (≈ 114 µM) | 64 µg/mL (≈ 114 µM) | 64 µg/mL (≈ 114 µM) | 32 µg/mL (≈ 56.9 µM) | 2 µg/mL (≈ 3.56 µM) | 4 µg/mL (≈ 7.11 µM) | > 13.4 µM | > 13.4 µM | >133.75 µM | >133.75 µM
7 | CCOC(=O)N1CCN(CC(=O)c2ccc(O)c3c2C[C@H]2C[C@H]4[C@H](N(C)C)C(O)=C(C(N)=O)C(=O)[C@@]4(O)C(O)=C2C3=O)CC1 [BR] | 64 µg/mL (≈ 104 µM) | 8 µg/mL (≈ 13.1 µM) | 8 µg/mL (≈ 13.1 µM) | 64 µg/mL (≈ 104 µM) | 0.5 µg/mL (≈ 0.816 µM) | 0.06 µg/mL (≈ 0.0979 µM) | 0.06 µg/mL (≈ 0.0979 µM) | > 40.7 µM | > 40.7 µM | >131.28 µM | >131.28 µM
8 | CN(C)CCNCc1cccc(-c2ccc(O)c3c2C[C@H]2C[C@H]4[C@H](N(C)C)C(O)=C(C(N)=O)C(=O)[C@@]4(O)C(O)=C2C3=O)c1 [CS] | 64 µg/mL (≈ 108 µM) | 2 µg/mL (≈ 3.39 µM) | 4 µg/mL (≈ 6.77 µM) | 64 µg/mL (≈ 108 µM) | 8 µg/mL (≈ 13.5 µM) | 0.06 µg/mL (≈ 0.102 µM) | 0.06 µg/mL (≈ 0.102 µM) | > 140 µM | > 140 µM | >139.98 µM | >139.98 µM
